SMILES strings stand for the structures.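 These data come from cells grown in 96-well plates and exposed to compound for 48 hours at five concentrations. Abbreviation: GI50, concentration required for 50% inhibition of growth.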 Calls of active or inactive are those of the source. Rule as the data show it: active = GI50 up to about 1.1 µM and inactive = higher.

Holding throughout (assay): NCI tumour cell line growth inhibition, 48 h
Assay [1] has as its system MOLT-4.
In assay [2] the test system is HOP-62.
Assay [3] has as its system U-251.
Assay [4] has as its system Malme-3M.
For assay [5], the system named is MDA-MB-435.
Assay [6] relates to NCI-H522.
Assay [7] relates to UACC-257.
Assay [8] relates to T47D.
The subject of assay [9] is M14.
Assay [10] deals with CAKI-1.
Assay [11] deals with LOX IMVI.
The test system of assay [12] is SK-MEL-2.
The test system of assay [13] is EKVX.
Assay [14] deals with SNB-75.
Assay [15] has as its system NCI-H226.
For assay [16], the system named is HCT-15.
In assay [17] the test system is HOP-92.
Assay [18] relates to HCC 2998.
In assay [19] the test system is RPMI-8226.

For `COC(=O)c1nn2ccc3ccccc3c2c1C(=O)OC`, the GI50 in assay [1] is 39.9 µM (inactive); in assay [2], 50.8 µM (inactive); in assay [3], > 100 µM (inactive); in [4] it was > 100 µM (inactive); in assay [5], 76.7 µM (inactive); in assay [6] it was > 100 µM (inactive). Besides, the GI50 is 60.7 µM (inactive) in assay [7]; > 100 µM (inactive) in assay [8]; 33 µM (inactive) in [9]; 48.9 µM (inactive) in assay [10]; 83.6 µM (inactive) in assay [11]; > 100 µM (inactive) in [12]. Further, the GI50 in [13] is 2.37 µM (inactive); in assay [14], 72.8 µM (inactive); in [15], > 100 µM (inactive); in assay [16] it was 54.3 µM; in assay [17], 96.2 µM (inactive).
As to `S=c1sc2c(s1)SCc1cccc(n1)CSc1sc(=S)sc1SCc1cccc(n1)CS2`, the GI50 in [1], in assay [2], in [3], in assay [4], in assay [5] and in assay [6] was > 100 µM (inactive) each time. Besides, the GI50 in assay [7], in [8], in assay [9], in assay [10], in [18] and in assay [11] was > 100 µM (inactive) in each case. In addition, the GI50 in assay [12] is > 100 µM (inactive); in assay [19] it was > 100 µM (inactive); in [13], > 100 µM (inactive); in assay [14], > 100 µM (inactive); in [15], > 100 µM (inactive); in [16], over 100 µM.
Take `COC(=O)C1(C(=O)OC)N=C(C)OC1C(C)C` (stereo unspecified): the GI50 in assay [1], in assay [2], in assay [3], in assay [5], in [7] and in assay [8] was > 100 µM (inactive) throughout. The GI50 in [9], in [10], in assay [18], in assay [11], in assay [12] and in [19] was > 100 µM (inactive) in each case. The GI50 was > 100 µM (inactive) in assay [13]; > 100 µM (inactive) in assay [14]; > 100 µM (inactive) in assay [15]; over 100 µM in assay [16]; > 100 µM (inactive) in assay [17].
With `NC(=S)N/N=C1\C(=O)C=C(Nc2ccc(Cl)cc2Cl)c2ccccc21`, the GI50 in assay [1] was 51.2 µM (inactive); in [2], 4.34 µM (inactive); in assay [3], 11 µM (inactive); in assay [5], > 100 µM (inactive); in [7], > 100 µM (inactive); in assay [8], 23.5 µM (inactive). For the same compound, the GI50 was 44.5 µM (inactive) in assay [9]; 15.8 µM (inactive) in [10]; > 100 µM (inactive) in [18]; 25.3 µM (inactive) in [11]; 39.3 µM (inactive) in assay [12]; 22.1 µM (inactive) in [13]. For the same compound, the GI50 in assay [14] was 11.5 µM (inactive); in assay [15], 33.6 µM (inactive); in assay [16], 31.1 µM; in assay [17] it was 15.8 µM (inactive).
Regarding `O=C(O)[C@@H]1C[C@@H](O)CN1`, the GI50 in assay [1], in [2], in [3], in assay [4], in assay [5] and in [7] was > 100 µM (inactive) in each case. For the same compound, the GI50 in assay [8], in assay [9], in assay [10], in assay [18], in assay [11] and in assay [12] was > 100 µM (inactive) in each case. Besides, the GI50 in assay [19] is > 100 µM (inactive); in assay [13] it was > 100 µM (inactive); in assay [14], > 100 µM (inactive); in assay [15], > 100 µM (inactive); in [16], over 100 µM; in [17], > 100 µM (inactive).
For the compound `O=C(O)CC1OCC=C2CN3CCC45c6ccccc6NC4C1C2CC35` (stereo unspecified), the GI50 in assay [1], in [2], in [3], in assay [5], in assay [6] and in assay [7] was > 100 µM (inactive) throughout. For the same compound, the GI50 in assay [8], in assay [9], in assay [10], in assay [11], in [19] and in assay [13] was > 100 µM (inactive) throughout. Also, the GI50 is 77.1 µM (inactive) in assay [14], > 100 µM (inactive) in [15], over 100 µM in assay [16] and > 100 µM (inactive) in assay [17].
As to `CCCCNC(=O)OCCN=c1c2ccccc2ccc2ccccc12`, the GI50 in assay [1], in assay [2], in [3], in [4], in [5] and in assay [7] was > 100 µM (inactive) in each case. Moreover, the GI50 in [8] was 75 µM (inactive); in assay [9], > 100 µM (inactive); in assay [10], > 100 µM (inactive); in assay [18] it was > 100 µM (inactive); in assay [11], > 100 µM (inactive); in assay [12], > 100 µM (inactive). Further, the GI50 is > 100 µM (inactive) in assay [19]; > 100 µM (inactive) in assay [13]; > 100 µM (inactive) in [14]; > 100 µM (inactive) in assay [15]; over 100 µM in assay [16]; > 100 µM (inactive) in assay [17].
For the compound `COC(=O)CCC1=C(CC(=O)OC)C(C)(OC)N/C1=N/C(=O)OCc1ccccc1` (stereo unspecified), the GI50 in assay [1], in assay [2], in assay [3], in assay [4], in assay [5] and in assay [6] was > 100 µM (inactive) in each case. Also, the GI50 in assay [7], in assay [8], in assay [9], in [10], in [18] and in assay [11] was > 100 µM (inactive) each time. The GI50 is > 100 µM (inactive) in [12]; > 100 µM (inactive) in [19]; > 100 µM (inactive) in assay [13]; > 100 µM (inactive) in assay [14]; > 100 µM (inactive) in [15]; over 100 µM in [16].
Turning to `CCn1c(-c2ccc(F)cc2)nc2c1C(=O)c1ccccc1C2=O`, the GI50 in assay [1] was > 100 µM (inactive); in assay [2], > 100 µM (inactive); in [3] it was > 100 µM (inactive); in [4], 45.1 µM (inactive); in assay [5] it was > 100 µM (inactive); in assay [6], > 100 µM (inactive). For the same compound, the GI50 was > 100 µM (inactive) in assay [7]; > 100 µM (inactive) in assay [8]; 71 µM (inactive) in assay [9]; > 100 µM (inactive) in assay [18]; > 100 µM (inactive) in assay [19]; > 100 µM (inactive) in assay [13]. For the same compound, the GI50 in [14] was > 100 µM (inactive); in [15] it was 91 µM (inactive); in assay [16], over 100 µM; in assay [17], > 100 µM (inactive).
In the case of `O=[N+]([O-])c1cccc(/N=N/c2c(O)ccc3ccccc23)c1`, the GI50 in assay [1] was 85.3 µM (inactive); in [2], 35 µM (inactive); in [3] it was 19.6 µM (inactive); in [4], 63.1 µM (inactive); in [5] it was 39.1 µM (inactive); in [6] it was 45.1 µM (inactive). Also, the GI50 in assay [7] was > 100 µM (inactive); in assay [8], > 100 µM (inactive); in [9], > 100 µM (inactive); in [10] it was > 100 µM (inactive); in [11], > 100 µM (inactive); in assay [12], 50.4 µM (inactive). Further, the GI50 in [19] was 54.2 µM (inactive); in assay [13] it was 35.2 µM (inactive); in assay [14], 91 µM (inactive); in [16] it was 44.6 µM; in assay [17] it was 48.1 µM (inactive).
For `CS(=O)(=O)c1nc(-c2cc3c(c(S(C)(=O)=O)n2)CCCC3)cc2c1CCCC2`, the GI50 in [1] was > 100 µM (inactive); in assay [2], 21 µM (inactive); in assay [3], > 55.3 µM (inactive); in assay [4], > 100 µM (inactive); in [5], > 100 µM (inactive); in assay [6], > 39.8 µM (inactive). The GI50 is > 100 µM (inactive) in assay [7]; > 100 µM (inactive) in assay [8]; > 100 µM (inactive) in [9]; > 39.9 µM (inactive) in [10]; > 100 µM (inactive) in assay [18]; > 62.4 µM (inactive) in assay [11]. The GI50 in [12] is > 54.3 µM (inactive); in assay [19], > 100 µM (inactive); in assay [13], > 70.1 µM (inactive); in [14], 6.75 µM (inactive); in assay [15], > 100 µM (inactive); in [16] it was over 100 µM.
`Cc1c2ccccc2c(C2C3C(=O)N(c4cccc5ccccc45)C(=O)C3ON2Cc2ccc(CC(N)=O)cc2)c2ccccc12` (stereo unspecified): the GI50 in assay [1] was 8.24 µM (inactive); in assay [2], 23 µM (inactive); in [3] it was 19.8 µM (inactive); in assay [4], 28.6 µM (inactive); in assay [5] it was 17.9 µM (inactive); in [6] it was 18.9 µM (inactive). Further, the GI50 in assay [7] was 12.2 µM (inactive); in assay [8] it was 15 µM (inactive); in assay [9], 15 µM (inactive); in [10] it was 29.3 µM (inactive); in [11], 18.9 µM (inactive); in assay [12], 10.8 µM (inactive). For the same compound, the GI50 was 14.2 µM (inactive) in assay [13]; 9.55 µM (inactive) in [14]; 13.4 µM (inactive) in assay [15]; 18.4 µM in assay [16]; 15.6 µM (inactive) in assay [17].

(Values after ChEMBL document CHEMBL1201862, “PubChem BioAssay data set” (2004).)
